# Reference: patent publication US20040063716A1, “Cholesterol biosynthesis inhibitors containing as the active ingredient tricyclic spiro compounds” (priority 2000, published 2004)
# Legend:
# Type in all cases: biochemical
# [1] = target: T1, human FXa (Homo sapiens, UniProt P00742); assay: Measurement of human FXa inhibitory action (chromogenic substrate S-2222); details: human FXa 0.019 U/ml, S-2222 0.4 mM, 37° C., pH 7.5
# T1 construct: purchased Enzyme Research Laboratories, Inc
# Experimental: In vitro FXa inhibitory activity is measured in accordance with the method of Kettner et al. (Journal of Biological Chemistry, vol. 265, pages 18289 to 18297, 1990). To be more specific, human FXa (product of Enzyme Research Laboratories, Inc., 0.019 U/ml) is mixed with a test compound diluted with dimethylsulfoxide (DMSO) at various concentrations and a synthetic substrate S-2222 (Chromogenix AB, 0.4 mM). The mixtures are incubated at 37° C. in Tris-hydrochloric acid buffer (pH 7.5) while the absorbance at 405 nm is measured continuously. To calculate the FXa inhibitory activity of the test compound, the initial reaction velocity is compared with the value for a control containing no test compound. It should be noted that the FXa inhibitory activity of the test compound is generally indicated as IC50.
# [2] = tested on: human plasma; assay: Measurement of intrinsic coagulation time (APTT) in vitro
# Experimental: Activated partial thromboplastin time (APTT) is measured in the presence of the test compounds diluted at various concentrations. A test compound diluted with DMSO at various concentrations is mixed with human plasma and APTT reagent. The mixture is incubated at 37° C. for 2 minutes; calcium chloride (25 mM) is added to the mixture; and the coagulation time is thereafter measured. It should be noted that the anticoagulant activity of the test compound is described in terms of the concentration required to double the coagulation time for the case where no test compound is added.
# [3] = target: T2, trypsin (Bos taurus, UniProt P00760); assay: Inhibitory activity for trypsin; details: FXa versus trypsin
# T2 construct: gene PRSS1
# T2 sequence (P00760 24-246): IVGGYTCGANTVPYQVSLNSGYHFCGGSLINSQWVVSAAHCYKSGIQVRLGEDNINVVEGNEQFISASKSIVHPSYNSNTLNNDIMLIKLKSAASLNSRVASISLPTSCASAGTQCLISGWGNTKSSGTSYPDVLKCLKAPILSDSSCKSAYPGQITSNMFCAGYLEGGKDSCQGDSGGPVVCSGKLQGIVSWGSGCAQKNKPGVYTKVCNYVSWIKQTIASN
# T1 sequence (P00742 235-488 limits assumed): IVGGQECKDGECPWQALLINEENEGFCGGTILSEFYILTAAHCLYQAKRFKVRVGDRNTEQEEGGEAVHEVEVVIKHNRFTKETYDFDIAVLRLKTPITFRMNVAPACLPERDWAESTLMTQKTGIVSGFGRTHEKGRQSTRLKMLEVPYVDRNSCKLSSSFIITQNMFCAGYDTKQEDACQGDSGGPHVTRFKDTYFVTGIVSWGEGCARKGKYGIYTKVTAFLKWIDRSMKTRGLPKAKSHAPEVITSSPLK
# T1 sequence (P00742 41-179 partner limits assumed): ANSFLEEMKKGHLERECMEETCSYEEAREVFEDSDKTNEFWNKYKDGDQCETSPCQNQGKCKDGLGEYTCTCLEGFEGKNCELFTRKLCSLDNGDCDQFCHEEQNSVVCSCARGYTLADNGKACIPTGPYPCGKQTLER
SMILES,IC50 [1] [nM],selectivity for trypsin [3],Concentration required to double coagulation time [2] [µM]
"O=C(O)COCC12CN(S(=O)(=O)c3ccc4cc(Cl)ccc4c3)CC(=O)N1CC1(CCN(c3ccncc3)CC1)O2 (stereo not drawn) [Example 5, 1,4-Diaza-4-(6-chloronaphthalen-2-ylsulfonyl)-6-(carboxymethoxymethyl)-7-oxa-1′-(4-pyridyl)spiro[bicyclo[4.3.0]nonane-8,4′-piperidin]-2-one]",2.9,,0.43
"COCC12CN(S(=O)(=O)c3ccc4cc(Cl)ccc4c3)CC(=O)N1CC1(CCN(c3ccncc3)CC1)O2 (single isomer, unassigned; (-)) [Compound A, (−)-1,4-diaza-4-(6-chloronaphthalen-2-ylsulfonyl)-6-(methoxymethyl)-7-oxa-1′-(4-pyridyl)spiro[bicyclo[4.3.0]nonane-8,4′-piperidin]-2-one]",,remarkably high selectivity,
"O=C1CN(S(=O)(=O)c2ccc3cc(Cl)ccc3c2)CC2(C(=O)O)OC3(CCN(c4ccncc4)CC3)CN12 (stereo not drawn) [Example 50, Ammonium 1,4-Diaza-4-(6-chloronaphthalen-2-ylsulfonyl)-7-oxa-2-oxo-1′-(4-pyridyl)spiro[bicyclo[4.3.0]nonane-8,4′-piperidine]-6-carboxylate]",1.9,,

# More lines, in order of falling IC50 [1], values ahead:
IC50 [1] [nM],selectivity for trypsin [3],SMILES,Concentration required to double coagulation time [2] [µM]
1.8,,"COCC12CN(S(=O)(=O)C=Cc3ccc(Cl)s3)CC(=O)N1CC1(CCN(c3ccncc3)CC1)N2 (stereo not drawn) [Example 712, 1,4,7-Triaza-4-[2-(5-chlorothiophen-2-yl)ethenesulfonyl]-6-(methoxymethyl)-1′-(4-pyridyl)spiro[bicyclo[4.3.0]nonane-8,4′-piperidin]-2-one]",
1.8,,"COCC12CN(S(=O)(=O)C=Cc3ccc(Cl)s3)CC(=O)N1CC1(CCN(c3ccncc3)CC1)O2 (stereo not drawn) [Example 684, 1,4-Diaza-4-[2-(5-chlorothiophen-2-yl)ethenesulfonyl]-6-(methoxymethyl)-7-oxa-1′-(4-pyridyl)spiro[bicyclo[4.3.0]nonane-8,4′-piperidin]-2-one]",
